From article PMC11101759, “Inhibitors of dermatan sulfate epimerase 1 decreased accumulation of glycosaminoglycans in mucopolysaccharidosis type I fibroblasts” (Glycobiology, 2024)

How the values were obtained:
[1] = target: T1, DS-epi1 (truncated form, amino acid 23–775-HIS) (Homo sapiens, UniProt Q9UL01); assay: DS-epi1 epimerase activity assay; format: biochemical
T1 construct: gene DSE; truncated, residues 23-775, HIS tag

[2] = target: T2, HSepi; heparan sulfate glucuronyl C-5 epimerase (GLCE) (Homo sapiens, UniProt O94923); assay: HSepi epimerase activity assay, lysate of transfected […]HEK; format: biochemical; conditions: read-out: % inhibition at 1,000 μM
T2 sequence (O94923 29-617): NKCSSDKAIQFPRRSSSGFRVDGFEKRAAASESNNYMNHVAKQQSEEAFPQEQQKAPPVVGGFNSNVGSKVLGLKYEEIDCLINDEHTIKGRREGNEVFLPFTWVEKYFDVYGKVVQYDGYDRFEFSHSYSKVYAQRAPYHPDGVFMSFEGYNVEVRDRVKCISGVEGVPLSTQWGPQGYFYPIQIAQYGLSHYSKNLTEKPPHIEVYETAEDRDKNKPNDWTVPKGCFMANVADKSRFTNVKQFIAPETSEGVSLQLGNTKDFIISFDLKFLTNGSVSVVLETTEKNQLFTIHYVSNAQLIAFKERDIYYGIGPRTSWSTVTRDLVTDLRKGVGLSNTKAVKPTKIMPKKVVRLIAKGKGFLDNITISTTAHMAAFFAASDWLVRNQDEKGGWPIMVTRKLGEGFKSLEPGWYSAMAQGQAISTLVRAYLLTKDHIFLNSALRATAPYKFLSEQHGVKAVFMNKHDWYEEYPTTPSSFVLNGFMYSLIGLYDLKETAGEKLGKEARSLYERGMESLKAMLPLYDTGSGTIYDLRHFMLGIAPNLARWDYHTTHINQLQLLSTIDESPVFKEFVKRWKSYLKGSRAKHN

| IC50 [1] [µM] | inhibition at 1000 µM [2] [%] | SMILES |
| --- | --- | --- |
| 12 | 69 | CN(c1cc(-c2ccccc2)nc(SCc2ccc(C(=O)O)o2)n1)C1CCCCC1 [compound 3, inhibitor 3] |
| 16 | 47 | CCCN(C)c1cc(-c2ccccc2)nc(SCc2cccc(C(=O)O)c2)n1 [compound 11, inhibitor 11] |
